Measured values published in patent publication US20220378739A1, “NATURAL KILLER CELL IMMUNOTHERAPY FOR THE TREATMENT OF GLIOBLASTOMA AND OTHER CANCERS” (BOARD OF REGENTS, THE UNIVERSITY OF TEXAS SYSTEM, priority 2019, published 2022).

Legend:
[1] = tested on: TGF-β1 Smad⅔ signaling pathway in NK cells; assay: Phospho-Smad⅔ assay in NK cells co-cultured with GSCs; type: cell-based, human; conditions: healthy control NK cells + GSCs; inhibitor 10 μM
Description: (§1) GSCs and purified NK cells were co-cultured for 48 hours in the presence of anti-TGFβ 123 (5 μg/ml) (R&D), HLA-ABC blocking antibody (clone W 6/32, Biolegend), CD44 blocking antibody (clone IM7, Biolegend), ILT-2 (CD85J) blocking antibody (clone HP-F1, ThermoFisher), CD155 blocking antibody (clone D171, GenTex), CD112 blocking antibody (clone TX31, Biolegend), 10 μM LY2109761, 10 μM galunisertib (LY2157299), 10 μM Cilengitide (Cayman Chemical) or 1 μM MMP-2/MMP-9 inhibitor I (Millipore). Cytotoxicity assays were then performed as described above.
NK cells were stained with Live/dead-aqua and CD56 ECD (Beckman Coulter) for 20 min in the dark at RT, washed with PBS fixed for 10 min in the dark. After one wash, the cells were permeabilized (Beckman Coulter kit) and stained with p-(5465/5467)-Smad2/p-(5423/5425)/Smad3-Alexa 647 mAb Phosflow antibody (BD Biosciences) for 30 minutes at room temperature. Cells incubated with 10 ng/ml recombinant TGF-β for 45 minutes in 37° C. were used as positive control.

K562 targets = type: cell-based, human; conditions: NK cells alone, inhibitor 10 μM, 48 hours
Description: (§2) NK cells were co-cultured for 5 hours with K562 or GSCs target cells at an optimized effector:target ratio of 5:1 together with CD107a PE-CF594 (BD Biosciences), monensin (BD GolgiStopTM) and BFA (Brefeldin A, Sigma Aldrich). NK cells were incubated without targets as the negative control and stimulated with PMA (50 ng/mL) and ionomycin ([…], Sigma Aldrich) as positive control. Cells were collected, washed and stained with surface antibodies (mentioned above), fixed/permeabilized (BD Biosciences) and stained with IFN-7 v450 and TNF-α Alexa700 (BD Biosciences) antibodies.
(§3) NK cell cytotoxicity was assessed using chromium (siCr) release assay. Briefly, K562 or GSCs target cells were labeled with siCr (PerkinElmer Life Sciences, Boston, Mass.) at 50 μCi/5×10^5 cells for 2 hours. ^51Cr-labeled K562/GSC targets (5×105) were incubated for 4 h with serially diluted magnetically isolated NK cells in triplicate. Supernatants were then harvested and analysed for ^51Cr content.
For studies of NK cell suppression by GSCs and human astrocytes, magnetically selected healthy NK cells were cultured in Serum-free Stem Cell Growth Medium (SCGM; CellGro/CellGenix) supplemented with 5% glutamine, 5 μM HEPES (both from GIBCO/Invitrogen), and 10% FCS (Biosera) in 96-well flat-bottomed plates (Nunc) at 100,000/100D11. NK cells were co-cultured either alone (positive control) or with GSCs or astrocytes at a 1:1 ratio for 48 hours at 37° C. before performing functional assays to assess NK cells cytotoxicity.
as §1

GSC targets = assay: NK cell functional assay (51Cr release; CD107a, IFN-γ, TNF-α) against GSC targets after co-culture with GSCs; type: cell-based, human; conditions: 48 hours co-culture with GSCs 1:1; inhibitor 10 μM
Description: as §2, §3
For studies of NK cell suppression by GSCs and human astrocytes, magnetically selected healthy NK cells were cultured in Serum-free Stem Cell Growth Medium (SCGM; CellGro/CellGenix) supplemented with 5% glutamine, 5 μM HEPES (both from GIBCO/Invitrogen), and 10% FCS (Biosera) in 96-well flat-bottomed plates (Nunc) at 100,000/100D11. […]

patient-derived GSCs = assay: Xenogeneic (PDX) NSG mouse model of GBM; type: in vivo
Description: To test this prediction, a PDX mouse model of patient-derived GSC was used, in which, ffLuc+ patient-derived GSCs (0.5×10^6) were stereotactically implanted on day 0 through a guide-screw into the right forebrain of NOD/SCID/IL2Rγc null mice (n=4-5 per group). After 7 days, the mice were treated intratumorally with 2.0×10^6 human NK cells every 7 days for 11 weeks (FIG. 5A) with either galunisertib to block the TGF-β signaling or cilengitide to block the integrin pathway. Galunisertib was administered five times a week by oral gavage and cilengitide three times a week by intraperitoneal injection. Animals implanted with tumor that were either untreated or received NK cells alone, galunisertib alone or cilengitide alone served as controls.
To assess the anti-tumor effect of NK cells against GSCs in vivo, a NOD/SCID IL-2R7null (NSG) human xenograft model (Jackson Laboratories, Bar Harbor, Me.) was used. Intracranial implantation of GSCs into male mice was performed as previously described^55. A total of 60 mice were used. 0.5×10^5 GSCs were implanted intracranially into the right frontal lobe of 5 week old NSG mice using a guide-screw system implanted within the skull. To increase uniformity of xenograft uptake and growth, cells were injected into 10 animals simultaneously using a multiport Microinfusion Syringe Pump (Harvard Apparatus, Holliston, Mass.). Animals were anesthetized with xylazine/ketamine during the procedure. For in vivo bioluminescent imaging, GSCs were engineered to express luciferase by lentivirus transduction. Kinetics of tumor growth was monitored using weekly bioluminescence imaging (BLI; Xenogen-IVIS 200 Imaging system; Caliper, Waltham, Mass.). Signal quantitation in photons/second (p/s) was performed by determining the photon flux rate within standardized regions of interest (ROI) using Living Image software (Caliper). […] expanded donor peripheral blood NK cells^56 were injected intracranially via the guide-screw at day 7 post tumor implantation, and then every 7 days for 11 weeks. Mice were treated with either cilengitide or galunisertib (both from MCE Med Chem Express, Monmouth Junction, NJ) in the presence or absence of intracranial NK cell injection. Cilengitide was administered intraperitoneally 3 times a week starting at day 1 (250 μg/100 μl PBS) while galunisertib was administered orally (75 mg/kg) by gavage 5 days a week starting at day 1 (see FIG. 5A). […]
Brain tissue specimens from untreated control mice, mice treated with either NK cells alone, cilengitide alone, galunisertib alone or with combination therapy of NK+ cilengitide or NK+ galunisertib were collected. […] Sections lacking tumor were also evaluated for evidence of meningoencephalitis using a Leica DM 2500 light microscope by a board-certified veterinary pathologist. […]

[2] = literature; cited from earlier work

In the case of `Cc1cccc(-c2nn3c(c2-c2ccnc4ccc(C(N)=O)cc24)CCC3)n1` [galunisertib], the “p-Smad⅔ expression (MFI) in NK cells co-cultured with GSCs” value [1] is reported as “prevented GSCs from activating the TGF-β1 Smad⅔ signaling pathway in NK cells”, the “NK cell function (CD107a, IFN-γ, TNF-α response to K562), NK cells without GSCs” value (K562 targets) is reported as “neither inhibitor affected NK cell function” and the “GSC-induced NK cell dysfunction: natural cytotoxicity against GSC targets” value (GSC targets) is reported as “preserving the natural cytotoxicity of NK cells against K562 or GSC targets”. For the same compound, the “tumor bioluminescence (BLI), first experiment” value (patient-derived GSCs; NK cells intratumorally every 7 days for 11 weeks, galunisertib oral 5 times a week, cilengitide i.p. three times a week) was “tumor bioluminescence rapidly increased”, the “NK-mediated GBM killing / efficacy in PDX model of GBM (summary statements)” value (patient-derived GSCs; mouse, in vivo) was “enhances NK-mediated GBM killing in vivo” and the “safety in glioblastoma patients” value [2] was “has been used safely in GBM patients”.
